# Tested on: ob/ob mice
# Experiment: Oral glucose tolerance test (OGTT) in ob/ob mice
# Format: in vivo
# Details: bi-daily 50 mg/kg during 28 days, AUC from -15 to 120 min
# Protocol: Ob/ob or obese mice are leptin-deficient mice that eat excessively and become profoundly obese, hyperinsulinemic and hyperglycemic. It is an animal model of type II diabetes. Such model can be used for oral glucose tolerance tests (OGTTs). A total of sixteen (16) male ob/ob mice (6 weeks of age) were obtained from Harlan. Upon arrival to the animal unit, mice were housed 4 per cage in rodent cages mounted with feeders containing regular chow. The mice were put in a 12/12 h light-dark cycle (light from 0600-1800 h) with controlled temperature conditions (22-24° C.). Fed blood glucose and body-weight was measured on day −2 in the morning between 08:00 AM and 09:00 AM. Animals were randomized into 2 groups according to fed glucose levels (on day −2). […]
# Day 1 is the first day of dosing. […] At −15 min, blood glucose was measured (using a glucose analyzer) and animals were dosed with compounds of the invention or vehicle. At time point 0, blood glucose was measured again and glucose was administered by oral gavage (1 g/kg glucose). The blood glucose was then measured at time points 15, 30, 45, 60 and 120 minutes. […] The percentages of AUC inhibition induced by compounds of the invention were calculated as follows: % of AUC inhibition: [1−(AUC compound/AUC vehicule)]*100.
smiles,measurement,value
"COc1ccccc1-c1ccc(C(=O)N2[C@@H](c3ccccc3Cl)CC[C@H]2C(=O)O)cc1 [Compound 1, (2S,5R)-5-(2-chlorophenyl)-1-(2′-methoxy-[1,1′-biphenyl]-4-carbonyl)pyrrolidine-2-carboxylic acid]","% of AUC inhibition (blood glucose, OGTT)",40%

# From patent US10017468B2, “Substituted pyrrolidines as G-protein coupled receptor 43 agonists” (Ogeda SA, priority 2009, dated 2018)
